Results as given in PMC7948422, “Repurposing p97 inhibitors for chemical modulation of the bacterial ClpB–DnaK bichaperone system” (The Journal of Biological Chemistry, 2020).
Several values for one entry are separate records, joined by “and”; a condition that tells them apart may be missing. Equal entries are not always repeated.

Experiments:
[1] = target: glucose-6-phosphate dehydrogenase (G6PDH) (Leuconostoc mesenteroides, UniProt P11411); assay: Native G6PDH activity; type: biochemical; conditions: increasing DBeQ concentration
glucose-6-phosphate dehydrogenase (G6PDH), sequence (P11411 whole entry): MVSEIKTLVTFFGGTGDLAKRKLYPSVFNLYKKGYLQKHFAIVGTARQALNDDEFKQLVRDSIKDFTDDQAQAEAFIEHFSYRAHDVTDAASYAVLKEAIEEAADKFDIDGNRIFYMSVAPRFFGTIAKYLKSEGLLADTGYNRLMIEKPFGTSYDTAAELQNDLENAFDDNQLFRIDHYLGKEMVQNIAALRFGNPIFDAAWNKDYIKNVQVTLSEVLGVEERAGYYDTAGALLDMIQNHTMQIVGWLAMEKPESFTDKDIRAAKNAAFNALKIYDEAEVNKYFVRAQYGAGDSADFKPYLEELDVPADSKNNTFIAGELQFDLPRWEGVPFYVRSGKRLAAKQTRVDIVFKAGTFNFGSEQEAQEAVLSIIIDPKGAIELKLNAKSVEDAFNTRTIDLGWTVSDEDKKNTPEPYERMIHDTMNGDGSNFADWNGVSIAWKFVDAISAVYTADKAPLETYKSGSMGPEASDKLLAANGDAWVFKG
Experimental: G6PDH was chemically denatured by mixing 5 μl of the G6PDH stock solution (441 μM) with 5 μl of buffer A (10 M urea, 16% glycerol, 40-mM DTT) preheated at 47 °C. The samples of G6PDH in buffer A were incubated for 5 min at 47 °C. Subsequently, 5 μl of denatured G6PDH was mixed with 95 μl of buffer B (50-mM Tris-HCl, pH 7.4, 20-mM Mg(OAc)2, 30-mM KCl, 1-mM EDTA, 1-mM β-mercaptoethanol) preheated at 47 °C to initiate protein refolding, which, under these conditions, is inefficient and leads to misfolding and aggregation of G6PDH ([69]). G6PDH aggregate production was arrested after 1 min (for refolding by KJE) or 15 min (for refolding by KJE with ClpB) by transferring into ice for 2 min. […] The plate was inserted into Synergy H1 plate reader (BioTek, Winooski, VT) with the chamber temperature at 30 °C, and the sample absorbance at 340 nm was measured after 10 min. The amount of NADPH produced was calculated based on the NADPH molar extinction coefficient, Ɛ340 = 6220 [M^−1 ⋅ cm^−1]. […]
conditions. The ATPase activity of wt ClpB was determined at 37 and 45 °C as the function of DBeQ concentration. […]
Supplementary Figure 7. […] (A) Firefly luciferase activity was determined in the absence (DMSO) or in the presence 100 µM ClpB inhibitor candidates. […] (B) G6PDH activity was determined in the presence of an increasing concentration of DBeQ and normalized to the DMSO control. […]

[2] = target: T1, DnaK (Escherichia coli, UniProt P0A6Y8); assay: Surface plasmon resonance, immobilized DnaK; type: binding
T1 construct: full-length E. coli DnaK (residues 1–638); made in house; host or cells: E. coli BL21(DE3)
T1 sequence (P0A6Y8 whole entry, the tested form may be a part): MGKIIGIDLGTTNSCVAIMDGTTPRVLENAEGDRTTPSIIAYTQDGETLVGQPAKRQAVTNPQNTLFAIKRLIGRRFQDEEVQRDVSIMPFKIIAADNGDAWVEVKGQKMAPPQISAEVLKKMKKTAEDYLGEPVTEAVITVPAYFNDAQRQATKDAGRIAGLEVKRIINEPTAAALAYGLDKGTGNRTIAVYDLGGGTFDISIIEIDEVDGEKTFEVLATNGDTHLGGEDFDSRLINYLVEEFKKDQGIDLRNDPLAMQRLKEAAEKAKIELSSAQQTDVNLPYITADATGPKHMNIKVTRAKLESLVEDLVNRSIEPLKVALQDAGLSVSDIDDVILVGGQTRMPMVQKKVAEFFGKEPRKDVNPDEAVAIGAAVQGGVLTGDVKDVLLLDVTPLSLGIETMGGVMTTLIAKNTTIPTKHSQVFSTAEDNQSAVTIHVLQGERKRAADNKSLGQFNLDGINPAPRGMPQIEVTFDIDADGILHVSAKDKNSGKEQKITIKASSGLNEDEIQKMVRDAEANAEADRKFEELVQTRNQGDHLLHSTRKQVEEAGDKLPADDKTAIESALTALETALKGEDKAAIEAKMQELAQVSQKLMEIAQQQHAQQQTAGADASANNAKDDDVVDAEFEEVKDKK
Experimental: ClpB, DnaK, and the NBD of DnaK were extensively dialyzed against the SPR buffer (20-mM Hepes, pH 7.4, 150-mM NaCl, 20-mM MgCl2, 1-mM EDTA, 1-mM DTT). After dialysis, the protein concentration was determined by the Bradford method. The DBeQ–protein interactions were studied using a Biacore T200 instrument (GE Healthcare) at 25 °C. The proteins were diluted to 300 μg/ml in 10-mM sodium acetate buffer (pH 5 for ClpB DnaK or pH 4 for NBD) and immobilized on HC1500M sensor chips (Xantec) by standard amine coupling chemistry as described previously ([70]). A reference flow cell was created by ethyl(dimethylaminopropyl) carbodiimide/N-hydroxysuccinimide activation followed by quenching with 1 M ethanolamine (pH 9.0). Solvent correction curves were obtained at the beginning and end and after every 50 injection cycles by injecting varying DMSO concentrations (4.0, 4.4, 4.6, 4.8, 5.0, 5.2, 5.4, and 5.9% [v/v]). […]
Binding isotherms were obtained with the ligand diluted to different concentrations in the SPR running buffer HBSMTD (20-mM Hepes, pH 7.4, 140-mM NaCl, 20-mM MgCl2, 5% (v/v) DMSO, 0.005% (v/v) Tween-20). […] The dissociation constants determined from those experiments were ∼20 μM for ATPγS and ∼2 mM for adenosine. […]
The resulting sensorgrams were analyzed using Biacore T200 Evaluation Software v3.0 according to the following procedure. […]

[3] = target: T2, ClpB (Escherichia coli, UniProt P63284); assay: Pilot chemical library screen of ClpB ATPase (BioMol Green); type: biochemical; conditions: 388 bioactive compounds, in the presence of 25 μM κ-casein
T2 construct: made in house
T2 sequence (P63284 whole entry): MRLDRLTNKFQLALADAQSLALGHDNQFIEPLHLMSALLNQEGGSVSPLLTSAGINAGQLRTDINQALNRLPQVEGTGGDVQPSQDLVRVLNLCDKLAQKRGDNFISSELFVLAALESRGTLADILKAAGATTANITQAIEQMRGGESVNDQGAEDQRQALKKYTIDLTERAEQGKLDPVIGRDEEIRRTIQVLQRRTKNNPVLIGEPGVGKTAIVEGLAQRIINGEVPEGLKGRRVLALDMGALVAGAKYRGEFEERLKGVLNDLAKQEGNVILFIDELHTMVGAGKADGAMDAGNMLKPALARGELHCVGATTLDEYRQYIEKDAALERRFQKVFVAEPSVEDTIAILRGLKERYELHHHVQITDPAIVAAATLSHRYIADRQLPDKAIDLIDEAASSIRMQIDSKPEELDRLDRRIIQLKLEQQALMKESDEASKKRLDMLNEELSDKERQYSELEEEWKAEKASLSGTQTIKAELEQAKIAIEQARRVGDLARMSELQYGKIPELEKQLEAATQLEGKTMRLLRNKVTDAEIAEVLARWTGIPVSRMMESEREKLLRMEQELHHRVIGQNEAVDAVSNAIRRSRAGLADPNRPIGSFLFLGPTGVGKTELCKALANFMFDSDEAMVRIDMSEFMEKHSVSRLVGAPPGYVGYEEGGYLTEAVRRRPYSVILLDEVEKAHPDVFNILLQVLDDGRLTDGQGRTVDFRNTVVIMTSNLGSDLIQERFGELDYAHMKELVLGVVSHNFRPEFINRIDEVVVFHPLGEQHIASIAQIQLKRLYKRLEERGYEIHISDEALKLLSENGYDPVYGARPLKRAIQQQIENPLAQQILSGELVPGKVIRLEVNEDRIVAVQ
Experimental: An absorbance-based assay for ClpB ATPase activity was developed by using BioMol Green Reagent (Enzo Life Sciences, Farmington, NY) for screening in a 384-microplate–based format. The optimized assay conditions were as follows: ClpB (150 nM), ATP ([…]), and κ-casein (25 μM) in 100-mM Tris/HCl, pH 8, 10-mM MgCl2, 1-mM DTT, and 1-mM EDTA. The samples were incubated for 10 min at 37 °C, and the ATP hydrolysis reaction was terminated by adding 80 μl of BIOMOL Green. Absorbance at 620 nm was measured with a PerkinElmer EnSpire. The optimized assay was used to screen compounds drawn from Selleck Bioactive library (1900 compounds; Selleck Chemicals, Houston, TX) in the presence or absence of κ-casein.

Q: What does the source list for c1ccc(CNc2nc(NCc3ccccc3)c3ccccc3n2)cc1 [DBeQ, N^2,N^4-dibenzylquinazoline-2,4-diamine]?
A: effect on native G6PDH activity [1]: not affected; Bmax (SPR signal at saturation), DnaK [2]: 2.07 ± 0.20; Kd ([2]; apparent Kd, DBeQ binding to DnaK, SPR, non-cooperative model, approximate, close to ligand solubility limit): 105 µM and ~100 µM; candidate ClpB ATPase inhibitor in pilot screen [3]: candidate ClpB ATPase inhibitor
